Reference: ChEMBL document CHEMBL1135111, “Antifungal sordarins. part 3: synthesis and structure-activity relationships of 2',3'-fused oxirane derivatives” (Bioorg Med Chem Lett, 2002)
Converted amounts (≈) assume the structure as drawn.

Legend:
Nakaseomyces glabratus = test: Compound was evaluated for antifungal activity as minimum cell growth inhibition against Candida glabrata - 2375E; assay type: functional
Candida albicans [1] = test: Compound was evaluated for antifungal activity as minimum cell growth inhibition against Candida albicans - 4711E; assay type: functional
Candida tropicalis = test: Compound was evaluated for antifungal activity as minimum cell growth inhibition against Candida tropicalis - 2808; assay type: functional
Cryptococcus neoformans = test: Compound was evaluated for antifungal activity as minimum cell growth inhibition against Cryptococcus neoformans - 2867; assay type: functional
Candida albicans [2] = test: Compound was evaluated for antifungal activity as minimum cell growth inhibition against Candida albicans - 2005; assay type: functional
Kluyveromyces marxianus = test: Compound was evaluated for antifungal activity as minimum cell growth inhibition against Candida pseudotropicalis -2371; assay type: functional, candida pseudotrop

Structure (SMILES)	MIC (Nakaseomyces glabratus) [µg/mL]	MIC (Candida albicans [1]) [µg/mL]	MIC (Candida tropicalis) [µg/mL]	MIC (Cryptococcus neoformans) [µg/mL]	MIC (Candida albicans [2]) [µg/mL]	MIC (Kluyveromyces marxianus) [µg/mL]
CO[C@H]1[C@@H]2O[C@@H]2[C@@H](OCC23C[C@@H]4[C@H](C)CC[C@H]4C4(C=O)CC2C=C(C(C)C)C34C(=O)O)O[C@@H]1C (some centres not stated)	31 (≈ 65.3 µM)	8 (≈ 16.9 µM)	31 (≈ 65.3 µM)	> 125	4 (≈ 8.43 µM)	1 (≈ 2.11 µM)
CO[C@H]1[C@H]2O[C@H]2[C@H](OCC23C[C@@H]4[C@H](C)CC[C@H]4C4(C=O)CC2C=C(C(C)C)C34C(=O)O)O[C@@H]1C (some centres not stated)	125 (≈ 263 µM)	–	4 (≈ 8.43 µM)	> 125	0.25 (≈ 0.527 µM)	0.12 (≈ 0.253 µM)
CO[C@H]1[C@@H]2O[C@@H]2[C@H](OCC23C[C@@H]4[C@H](C)CC[C@H]4C4(C=O)CC2C=C(C(C)C)C34C(=O)O)O[C@@H]1C (some centres not stated)	16 (≈ 33.7 µM)	0.25 (≈ 0.527 µM)	0.25 (≈ 0.527 µM)	8 (≈ 16.9 µM)	0.06 (≈ 0.126 µM)	0.03 (≈ 0.0632 µM)
CO[C@H]1[C@@H]2S[C@@H]2[C@H](OCC23C[C@@H]4[C@H](C)CC[C@H]4C4(C=O)CC2C=C(C(C)C)C34C(=O)O)O[C@@H]1C (some centres not stated)	16 (≈ 32.6 µM)	0.12 (≈ 0.245 µM)	0.5 (≈ 1.02 µM)	> 125	0.03 (≈ 0.0611 µM)	0.008 (≈ 0.0163 µM)
CO[C@H]1[C@H]2O[C@H]2[C@@H](OCC23C[C@@H]4[C@H](C)CC[C@H]4C4(C=O)CC2C=C(C(C)C)C34C(=O)O)O[C@@H]1C (some centres not stated)	31 (≈ 65.3 µM)	16 (≈ 33.7 µM)	> 125	125 (≈ 263 µM)	4 (≈ 8.43 µM)	2 (≈ 4.21 µM)

Now from value to molecule:

MIC (Nakaseomyces glabratus) [µg/mL]	MIC (Candida albicans [1]) [µg/mL]	MIC (Candida tropicalis) [µg/mL]	MIC (Cryptococcus neoformans) [µg/mL]	MIC (Candida albicans [2]) [µg/mL]	MIC (Kluyveromyces marxianus) [µg/mL]	Structure (SMILES)
> 125	16 (≈ 32.6 µM)	31 (≈ 63.2 µM)	> 125	4 (≈ 8.15 µM)	16 (≈ 32.6 µM)	CO[C@H]1[C@@H]2O[C@@H]2[C@H](OCC23C[C@@H]4[C@H](C)CC[C@H]4C4(C=O)CC2C=C(C(C)C)C34C(=O)O)O[C@@H]1CO (some centres not stated)
62 (≈ 123 µM)	0.5 (≈ 0.991 µM)	4 (≈ 7.93 µM)	16 (≈ 31.7 µM)	0.06 (≈ 0.119 µM)	0.25 (≈ 0.495 µM)	COC[C@H]1O[C@@H](OCC23C[C@@H]4[C@H](C)CC[C@H]4C4(C=O)CC2C=C(C(C)C)C34C(=O)O)[C@H]2O[C@H]2[C@@H]1OC (some centres not stated)
> 125	0.25 (≈ 0.389 µM)	0.06 (≈ 0.0933 µM)	0.25 (≈ 0.389 µM)	0.015 (≈ 0.0233 µM)	0.03 (≈ 0.0467 µM)	C/C=C/C=C(/O[C@H]1[C@H](O)[C@H](OCC23C[C@@H]4[C@H](C)CC[C@H]4C4(C=O)CC2C=C(C(C)C)C34C(=O)O)O[C@H](C)[C@H]1O)C(=O)C(CC)CC (some centres not stated)
